The source of these data is patent US20070280929A1, “ADJUVANT IN THE FORM OF A LIPID-MODIFIED NUCLEIC ACID” (priority 2006, published 2007).

For series [1], the system named is breast cancer cell lines. The note with it: various breast cancer cell lines; cited from earlier work.
The subject of series [2] is human PBMC cells. Nature of the series: TNF-α release by human PBMC cells after 16 h co-incubation, supernatants analysed by ELISA. As to conditions: FIG. 6, 10 μg/ml RNA oligonucleotides. It counts as cell-based. As for the experimental part:
In order to determine the immunogenic activity of adjuvants according to the invention, such adjuvants in the form of a lipid-modified nucleic acid containing a sequence according to SEQ ID NO: 40, 41 or 42 were co-incubated with human cells. To this end, human PBMC cells, for example, containing RNA were co-incubated for 16 hours in X-vivo15 medium (BioWhittaker), enriched with 2 mM L-glutamine (BioWhittaker), 10 U/ml penicillin (BioWhittaker) and 10 μg/ml streptomycin, with 10 μg/ml of RNA (mRNA coding for β-galactosidase or phosphorothioate RNA oligonucleotide 40 5′ […] (SEQ ID NO: 40)) and optionally with 10 μg/ml protamine. The supernatants were removed and analysed by means of ELISA. […] When determining the TNFα release, a marked stimulation of the immune system can be detected, which is at least equal to that of β-galactosidase or RNA (see FIG. 5B).
In a further experiment, the release of TNF-α by human PBMC cells was determined after stimulation with RNA oligonucleotides used according to the invention and also adjuvants according to the invention.
To that end, human PBMC cells were co-incubated for 16 hours with 10 μg/ml of RNA oligonucleotides in X-vivo15 medium (BioWhittaker), enriched with 2 mM L-glutamine (BioWhittaker), 10 U/ml penicillin (BioWhittaker) and 10 μg/ml streptomycin. […] The supernatants were removed and analysed by means of ELISA. […]
In general terms: ELISA stands for enzyme-linked immunosorbent assay.

On to `Cc1c(C)c2c(c(C)c1OC(=O)CCC(=O)O)CC[C@@](C)(CCC[C@H](C)CCC[C@H](C)CCCC(C)C)O2` [VES, vitamin E succinate], for which the apoptosis entry in series [1] is “induce apoptosis”.

Regarding “RNA oligo Toc CV2: tocopherol-modified sequence according to SEQ ID NO: 42 (5′-AAUGGAUAUGGAAUAUGGAA-3′, RNA CV2) (RNA, backbone not given here; tocopherol lipid conjugated)”, the “increase in immune stimulation (TNF-α release) as compared with the unmodified RNA oligonucleotide” value in series [2] is “more than 10 fold”.
